The target of one test is T1, human H1 (Homo sapiens, UniProt P35367).
T1 construct: host or cells: CHO-K1, also expressing mitochondrion-targeted aequorin
The test is described as follows: In vitro histamine H1 receptor cell-based aequorin bioluminescence antagonist assay. Conditions: CHO-K1 cells expressing human H1 and aequorin; histamine at EC80; read-out: H1 Antagonist EC50. The procedure, abridged:
(§1)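 CHO-K1 cells stably expressing human H1 or H4 plus mitochondrial aequorin (H4 also with Gα16), loaded with 5 μM coelenterazine-h for 4 h at ~21 °C. Compounds preincubated 15 min at room temperature, then histamine at EC80 added.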

Test [1] relates to tissue eosinophil peroxidase (EPO). The test is described as follows: Allergic conjunctivitis in passively sensitized guinea pigs, conjunctival EPO activity. Format: in vivo. On the set-up: key: a test compound was assigned a “+” if a 0.01% bid dose was statistically equivalent to dexamethasone with respect to reduction of EPO activity; a “−” was assigned if the compound was statistically inferior to dexamethasone and not different than vehicle. Particulars: reduction of conjunctival EPO activity 24 h after ovalbumin challenge, compared with 0.1% w/v dexamethasone, guinea pig; for BID activity: 0.01% bid topical dose (1 hour prior to and 8 hours after challenge); for QD activity: ≦0.1% qd topical dose (1 hour prior to challenge). As to the method: (§2) Allergic Conjunctivitis in Passively Sensitized Guinea Pigs
Male Hartley VAF outbred guinea pigs were passively sensitized to ovalbumin by a single OD subconjunctival injection of undiluted guinea pig anti-ovalbumin antiserum 24 hours before OD topical challenge with 500 μg ovalbumin in saline. Control animals were injected with saline only and challenged with ovalbumin. To determine acute phase drug efficacy, 30 min after challenge animals were clinically scored by a masked observer for severity of signs of conjunctivitis based on a standard scale. Test compounds were administered topically 1 hour prior to challenge (QD protocol), or 1 hour prior to challenge and again 8 hours after challenge (BID protocol). Twenty-four hours after challenge, animals were euthanized and conjunctivae were harvested for determination of tissue eosinophil peroxidase (EPO) concentration as a marker of allergic inflammation. Homogenates of freshly collected tissues were prepared by shaking the tissues in 2 mL round-bottom tubes containing 0.5 mL of homogenization buffer (50 mM Tris HCl, pH 8.0, 6 mM KBr) and one 5-mm stainless steel bead on a Qiagen TissueLyser at 30 Hz for 5 min. Homogenates were frozen and thawed once, then centrifuged at 10,000 rpm for 5 min. EPO activity in supernatants was measured by reacting diluted homogenates with a solution of 6 mM o-phenylenediamine substrate and 8.8 mM H2O2 in homogenization buffer for 3 min. The reaction was stopped with 4M H2SO4 and absorbances were measured at 490 nm on a spectrophotometric plate reader. Total EPO in samples was calculated from a standard curve of recombinant human EPO in each assay. EPO activity was normalized to total protein concentration (Pierce BCA assay) in supernatants. Background EPO activity was determined from the unsensitized, antigen-challenged control group. Percent inhibition was calculated from the sensitized, antigen-challenged, vehicle-treated control group in each experiment. Ovalbumin-injected animals dosed topically with 0.1% w/v dexamethasone (dex) served as positive control. Groups were compared by ANOVA with Dunnett's or Tukey's post-hoc tests where appropriate with significance assigned at the 95% confidence level.
The table below summarizes the results.

For another test, the target named is T2, human H4 (Homo sapiens, UniProt Q9H3N8).
T2 construct: host or cells: CHO-K1, also expressing mitochondrion-targeted aequorin and human Gα16
T2 sequence (Q9H3N8 whole entry): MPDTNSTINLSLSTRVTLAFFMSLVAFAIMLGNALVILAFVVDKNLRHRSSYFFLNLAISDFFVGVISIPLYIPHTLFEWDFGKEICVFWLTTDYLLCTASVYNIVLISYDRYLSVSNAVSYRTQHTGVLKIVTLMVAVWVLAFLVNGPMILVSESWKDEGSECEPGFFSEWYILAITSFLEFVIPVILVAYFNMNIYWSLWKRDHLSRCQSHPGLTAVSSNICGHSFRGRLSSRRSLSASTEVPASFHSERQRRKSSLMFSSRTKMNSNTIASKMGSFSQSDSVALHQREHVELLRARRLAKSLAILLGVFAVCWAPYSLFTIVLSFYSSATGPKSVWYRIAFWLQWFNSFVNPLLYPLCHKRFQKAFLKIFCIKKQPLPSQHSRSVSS
The experiment in a line: In vitro histamine H4 receptor cell-based aequorin bioluminescence antagonist assay. Particulars: CHO-K1 cells expressing human H4, aequorin and Gα16; histamine at EC80. The procedure, abridged: as §1

The subject of test [2] is tissue eosinophil peroxidase (EPO). The experiment in a line: Allergic conjunctivitis in passively sensitized guinea pigs, conjunctival EPO activity. The class given is in vivo. The arrangement: key: a test compound was assigned a “+” if a ≦0.1% qd dose was statistically equivalent to dexamethasone with respect to reduction of EPO activity; a “−” was assigned if the compound was statistically inferior to dexamethasone and not different than vehicle. Conditions: ≦0.1% qd topical dose (1 hour prior to challenge); reduction of conjunctival EPO activity 24 h after ovalbumin challenge, compared with 0.1% w/v dexamethasone; guinea pig. The procedure: as §2
Male Hartley VAF outbred guinea pigs were passively sensitized to ovalbumin by a single OD subconjunctival injection of undiluted guinea pig anti-ovalbumin antiserum 24 hours before OD topical challenge with 500 μg ovalbumin in saline. Control animals were injected with saline only and challenged with ovalbumin. To determine acute phase drug efficacy, 30 min after challenge animals were clinically scored by a masked observer for severity of signs of conjunctivitis based on a standard scale. Test compounds were administered topically 1 hour prior to challenge (QD protocol), or 1 hour prior to challenge and again 8 hours after challenge (BID protocol). […] EPO activity in supernatants was measured by reacting diluted homogenates with a solution of 6 mM o-phenylenediamine substrate and 8.8 mM H2O2 in homogenization buffer for 3 min. The reaction was stopped with 4M H2SO4 and absorbances were measured at 490 nm on a spectrophotometric plate reader. Total EPO in samples was calculated from a standard curve of recombinant human EPO in each assay. […] Background EPO activity was determined from the unsensitized, antigen-challenged control group. Percent inhibition was calculated from the sensitized, antigen-challenged, vehicle-treated control group in each experiment. […]

pEC50: −log10 of the molar value.

T1 sequence (P35367 whole entry): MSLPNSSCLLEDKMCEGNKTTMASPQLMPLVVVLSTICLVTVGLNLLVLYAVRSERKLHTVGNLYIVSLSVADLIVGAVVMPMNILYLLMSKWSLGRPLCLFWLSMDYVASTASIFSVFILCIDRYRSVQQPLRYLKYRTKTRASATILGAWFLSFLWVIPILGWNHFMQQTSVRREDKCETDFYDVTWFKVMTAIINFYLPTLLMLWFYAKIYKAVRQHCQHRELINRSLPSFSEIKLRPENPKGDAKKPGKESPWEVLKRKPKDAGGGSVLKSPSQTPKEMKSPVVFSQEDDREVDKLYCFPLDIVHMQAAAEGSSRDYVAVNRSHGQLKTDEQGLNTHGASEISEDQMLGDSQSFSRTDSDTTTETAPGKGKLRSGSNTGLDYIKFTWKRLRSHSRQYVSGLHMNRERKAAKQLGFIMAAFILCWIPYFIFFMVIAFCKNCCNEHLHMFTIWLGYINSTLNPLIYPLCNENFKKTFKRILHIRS

A word on the pEC50: it is the EC50 on a negative log10 scale, so that one unit is a factor of ten. Consider `Clc1ccc(CCNc2nccc3sccc23)cc1` [Example 27, N-(4-chlorophenethyl)thieno[3,2-c]pyridin-4-amine], for which the pEC50 on human H1 and at human H4 was under 5.00 throughout. Besides, the BID activity result in test [1] is on record as “+”. Further, the QD activity result in test [1] is on record as “−”.

As to `Cc1csc2ncnc(NC3Cc4ccccc4C3)c12` [Example 29, N-(2,3-dihydro-1H-inden-2-yl)-5-methylthieno[2,3-d]pyrimidin-4-amine], the QD activity result in test [2] is on record as “+”. Also, the pEC50 at human H1 was under 5.00.

Regarding `Cc1sc2ncnc(NCCc3ccccc3Cl)c2c1C` [Example 43, N-[2-(2-chlorophenyl)ethyl]-5,6-dimethylthieno[2,3-d]pyrimidin-4-amine], on human H1, the pEC50 was under 5.00. Further, the BID activity entry in test [1] is reported as “−”.

`Clc1ccc(CCNc2ncnc3sccc23)cc1` [Example 45, N-[2-(4-chlorophenyl)ethyl]thieno[2,3-d]pyrimidin-4-amine]: the negative-log EC50 (pEC50) on human H1 is under 5.00. Moreover, in test [1], the BID activity entry is listed as “+” and the QD activity result is “−”.

As for `Cc1csc2ncnc(NCc3ccccn3)c12` [Example 85, 5-methyl-N-(pyridin-2-ylmethyl)thieno[2,3-d]pyrimidin-4-amine], the QD activity entry in test [2] is on record as “+”. Further, the pEC50 at human H1 and at human H4 was under 5.00 each time.

For `COc1cc(CN(C)c2ncnc3scc(C)c23)cc(OC)c1OC` [Example 276, N,5-dimethyl-N-[(3,4,5-trimethoxyphenyl)methyl]thieno[2,3-d]pyrimidin-4-amine], the pEC50 at human H1 and at human H4 was under 5.00 in each case.

Turning to `Cc1csc2ncnc(N(C)C(Cc3ccccc3)c3ccccc3)c12` (centres unmarked) [Example 278, N-(1,2-diphenylethyl)-N,5-dimethylthieno[2,3-d]pyrimidin-4-amine], the negative logarithm of the EC50 (pEC50) on human H1 and at human H4 was under 5.00 in each case.

Regarding `Cc1csc2ncnc(N3CCC(O)(c4ccc(Cl)cc4)CC3)c12` [Example 280, 4-(4-chlorophenyl)-1-{5-methylthieno[2,3-d]pyrimidin-4-yl}piperidin-4-ol], the negative logarithm of the EC50 (pEC50) at human H1 and on human H4 was under 5.00 in each case.

Consider `C#CCN(Cc1ccc(Cl)cc1Cl)c1ncnc2scc(C)c12` [Example 281, N-[(2,4-dichlorophenyl)methyl]-5-methyl-N-(prop-2-yn-1-yl)thieno[2,3-d]pyrimidin-4-amine], for which the negative logarithm of the EC50 (pEC50) on human H1 and on human H4 was under 5.00 each time.

On to `CCN(c1ncnc2scc(C)c12)C(Cc1ccccc1)c1ccco1` (centres unmarked) [Example 282, N-ethyl-N-[1-(furan-2-yl)-2-phenylethyl]-5-methylthieno[2,3-d]pyrimidin-4-amine], for which the negative logarithm of the EC50 (pEC50) on human H1 and on human H4 was under 5.00 in each case.

Consider `Cc1csc2ncnc(N3CCN(C(=O)OC(C)(C)C)C[C@H]3CO)c12` [Example 283, tert-butyl (3S)-3-(hydroxymethyl)-4-{5-methylthieno[2,3-d]pyrimidin-4-yl}piperazine-1-carboxylate], for which the pEC50 on human H1 and at human H4 was under 5.00 throughout.

`Cc1csc2ncnc(N3CCN(c4ccc(C(C)(C)C)cc4)CC3)c12` [Example 284, 1-(4-tert-butylphenyl)-4-{5-methylthieno[2,3-d]pyrimidin-4-yl}piperazine]: the pEC50 on human H1 and on human H4 was under 5.00 throughout.

On to `COc1cc2c(cc1OC)CN(c1ncnc3scc(C)c13)CC2` [Example 286, 6,7-dimethoxy-2-{5-methylthieno[2,3-d]pyrimidin-4-yl}-1,2,3,4-tetrahydroisoquinoline], for which the pEC50 on human H1 and at human H4 was under 5.00 in each case.

Take `Cc1csc2ncnc(N3CCN(c4cccc(C(F)(F)F)c4)CC3)c12` [Example 288, 1-{5-methylthieno[2,3-d]pyrimidin-4-yl}-4-[3-(trifluoromethyl)phenyl]piperazine]: the pEC50 on human H1 and at human H4 was under 5.00 in each case.

The values are drawn from patent US20100063047A1 (KALYPSYS, INC., priority 2008, published 2010).
